Experimental data: PubChem BioAssay (NCI)
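Cultured in 96-well plates, cells were exposed to test compound for 48 hours across five concentrations. Definition used: TGI = concentration required for complete inhibition of growth.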

Assays:
Experiment in all cases: DTP human tumour cell line panel, 48 h
[1] = system: SNB-19 CNS
[2] = system: SW-620 colon
[3] = system: OVCAR-8 ovarian
[4] = system: SR leukemia
[5] = system: NCI-H226 lung
[6] = system: SF-295 CNS
[7] = system: MCF7 breast
[8] = system: NCI-H522 lung
[9] = system: EKVX NSCLC
[10] = system: UACC-62 melanoma
[11] = system: SN12C renal
[12] = system: U251 CNS
[13] = system: ACHN renal
[14] = system: SK-MEL-28 melanoma
[15] = system: HL-60(TB) leukemia
[16] = system: UO-31 renal
[17] = system: HCT-15 colon
[18] = system: CAKI-1 renal
[19] = system: HCC-2998 colon
[20] = system: RXF 393 renal
[21] = system: MOLT-4 leukemia
[22] = system: SK-MEL-2 melanoma
[23] = system: NCI-H23 lung
[24] = system: SF-268 CNS
[25] = system: A498 renal
[26] = system: HT29 colon
[27] = system: DU-145 prostate
[28] = system: MALME-3M melanoma
[29] = system: TK-10 renal
[30] = system: RPMI-8226 leukemia
[31] = system: HS 578T breast
[32] = system: BT-549 breast
[33] = system: SNB-75 CNS
[34] = system: CCRF-CEM leukemia
[35] = system: M14 melanoma
[36] = system: T-47D breast
[37] = system: SF-539 CNS
[38] = system: LOX IMVI melanoma
[39] = system: HOP-62 NSCLC
[40] = system: 786-0 renal
[41] = system: A549 NSCLC
[42] = system: OVCAR-4 ovarian
[43] = system: UACC-257 melanoma
[44] = system: OVCAR-5 ovarian
[45] = system: MDA-N
[46] = system: SK-OV-3 ovarian
[47] = system: HOP-92 NSCLC
[48] = system: KM12 colon
[49] = system: MDA-MB-231 breast
[50] = system: NCI-H460 lung
[51] = system: K-562 leukemia
[52] = system: HCT-116 colon
[53] = system: IGROV1 ovarian
[54] = system: PC-3 prostate
[55] = system: MDA-MB-435
[56] = system: SK-MEL-5 melanoma
[57] = system: NCI/ADR-RES ovarian
[58] = system: COLO 205 colon
[59] = system: OVCAR-3 ovarian

Measured: TGI

COCn1c(C)c(C)c2c(=O)oc(=O)[nH]c21
> 100 µM: [1] | [2] | [3] | [4] | [5] | [6] | [7] | [8] | [9] | [10] | [11] | [12] | [13] | [14] | [15] | [16] | [17] | [18] | [19] | [20] | [21] | [22] | [23] | [24] | [25] | [26] | [27] | [28] | [29] | [30] | [31] | [32] | [33] | [34] | [35] | [36] | [37] | [38] | [39] | [40] | [41] | [42] | [43] | [44] | [45] | [46] | [47] | [48] | [49] | [50] | [51] | [52] | [53] | [54] | [55] | [56] | [57] | [58]

COCn1c2ccc(OC(C)=O)cc2c2c(=O)oc(C)nc21
> 100 µM: [1] | [2] | [3] | [4] | [5] | [6] | [7] | [8] | [9] | [10] | [11] | [12] | [13] | [14] | [15] | [16] | [17] | [18] | [19] | [20] | [21] | [22] | [23] | [24] | [25] | [26] | [27] | [28] | [29] | [30] | [31] | [32] | [33] | [34] | [35] | [36] | [37] | [38] | [39] | [40] | [41] | [42] | [43] | [44] | [45] | [46] | [47] | [48] | [49] | [50] | [51] | [52] | [53] | [54] | [55] | [56] | [57] | [58]

CC(C)(C)c1cc(C(O)(C(=O)O)C(=O)O)cc(C(C)(C)C)c1O
> 100 µM: [1] | [2] | [3] | [4] | [5] | [6] | [7] | [8] | [9] | [10] | [11] | [12] | [13] | [14] | [15] | [16] | [17] | [18] | [59] | [20] | [21] | [22] | [23] | [24] | [25] | [26] | [27] | [28] | [29] | [30] | [31] | [32] | [33] | [34] | [35] | [36] | [37] | [38] | [39] | [40] | [41] | [42] | [43] | [44] | [45] | [46] | [47] | [48] | [49] | [51] | [52] | [53] | [54] | [55] | [56] | [57] | [58]
